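Grown in 96-well plates, cells were treated for 48 hours with each compound at five concentrations. Insufficient inhibition: endpoint recorded as highest concentration tested. Abbreviation: GI50, concentration required for 50% inhibition of growth. Definition used: TGI = concentration required for complete inhibition of growth.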
Assays:
Test in all cases: NCI anticancer screen, dose series, 48 h
[1] = tested on: CCRF-CEM leukemia
[2] = tested on: SK-MEL-2 melanoma
[3] = tested on: MCF7 breast
[4] = tested on: DU-145 prostate
[5] = tested on: RPMI-8226 leukemia
[6] = tested on: OVCAR-4 ovarian
[7] = tested on: PC-3 prostate
[8] = tested on: NCI-H460 lung
[9] = tested on: HCT-116 colon
[10] = tested on: COLO 205 colon
[11] = tested on: CAKI-1 renal
[12] = tested on: ACHN renal
[13] = tested on: OVCAR-5 ovarian
[14] = tested on: HCC-2998 colon
[15] = tested on: SN12C renal
[16] = tested on: HOP-92 NSCLC
[17] = tested on: SK-OV-3 ovarian
[18] = tested on: MOLT-4 leukemia
[19] = tested on: NCI-H23 lung
[20] = tested on: HOP-62 NSCLC
[21] = tested on: EKVX NSCLC
[22] = tested on: SW-620 colon
[23] = tested on: KM12 colon
[24] = tested on: TK-10 renal
[25] = tested on: HCT-15 colon
[26] = tested on: SF-539 CNS
[27] = tested on: NCI/ADR-RES ovarian
[28] = tested on: OVCAR-8 ovarian
[29] = tested on: NCI-H522 lung
[30] = tested on: U251 CNS
[31] = tested on: OVCAR-3 ovarian
[32] = tested on: MDA-MB-231 breast
[33] = tested on: UACC-62 melanoma
[34] = tested on: UACC-257 melanoma
[35] = tested on: A549 NSCLC
[36] = tested on: SK-MEL-28 melanoma
[37] = tested on: IGROV1 ovarian
[38] = tested on: HS 578T breast
[39] = tested on: LOX IMVI melanoma
[40] = tested on: SF-268 CNS
[41] = tested on: SNB-19 CNS
[42] = tested on: T-47D breast
[43] = tested on: BT-549 breast
[44] = tested on: M14 melanoma
[45] = tested on: K-562 leukemia
[46] = tested on: NCI-H226 lung
[47] = tested on: SF-295 CNS
[48] = tested on: HL-60(TB) leukemia
[49] = tested on: SK-MEL-5 melanoma
[50] = tested on: RXF 393 renal
[51] = tested on: 786-0 renal
[52] = tested on: MDA-MB-435
[53] = tested on: SR leukemia
[54] = tested on: UO-31 renal

Compound `CCC(CC)c1nc(Nc2ccc(C(=O)OC)cc2)c2ccccc2n1` has a GI50 [1] of 6.64 µM, a TGI [1] of 48.9 µM and a GI50 [2] of 9.39 µM. The TGI [2] was 20 µM, the GI50 [3] was 24.2 µM and the TGI [3] was > 50 µM. The GI50 [4] was > 22.7 µM, the TGI [4] was > 31.1 µM and the GI50 [5] was 5.08 µM. The TGI [5] was 22.9 µM, the GI50 [6] was 7.45 µM and the TGI [6] was 18.6 µM. The GI50 [7] was 7.8 µM, the TGI [7] was 17.1 µM and the GI50 [8] was 19.9 µM. The TGI [8] was > 50 µM, the GI50 [9] was 12.9 µM and the TGI [9] was > 28.6 µM. It also gave a GI50 [10] of 8.2 µM, a TGI [10] of 15 µM and a GI50 [11] of 5.74 µM. It also gave a TGI [11] of 11.8 µM, a GI50 [12] of 8.1 µM and a TGI [12] of 18.1 µM. The GI50 [13] was 17.9 µM, the TGI [13] was > 50 µM and the GI50 [14] was 8.66 µM. It also gave a TGI [14] of 17.1 µM, a GI50 [15] of 7.83 µM and a TGI [15] of 16.3 µM. The GI50 [16] was 18.6 µM, the TGI [16] was > 26.4 µM and the GI50 [17] was 9.54 µM. For the same compound, the TGI [17] was 19 µM, the GI50 [18] was 1.41 µM and the TGI [18] was 3.67 µM. For the same compound, the GI50 [19] was 15.5 µM, the TGI [19] was > 37.4 µM and the GI50 [20] was 10.4 µM. The TGI [20] was 21.6 µM, the GI50 [21] was 15.9 µM and the TGI [21] was > 29.4 µM. The GI50 [22] was 12.7 µM, the TGI [22] was > 27.7 µM and the GI50 [23] was 8.01 µM. For the same compound, the TGI [23] was 18 µM, the GI50 [24] was 13.2 µM and the TGI [24] was 25.7 µM. For the same compound, the GI50 [25] was 11 µM, the TGI [25] was > 33.1 µM and the GI50 [26] was > 20.5 µM. For the same compound, the TGI [26] was > 28.6 µM, the GI50 [27] was 24.3 µM and the TGI [27] was > 34.7 µM. The GI50 [28] was 12.9 µM, the TGI [28] was > 31.4 µM and the GI50 [29] was 8.65 µM. The TGI [29] was 18.4 µM, the GI50 [30] was 8.5 µM and the TGI [30] was 19 µM. The GI50 [31] was 5.7 µM, the TGI [31] was 21 µM and the GI50 [32] was 8.59 µM. The TGI [32] was 22.8 µM, the GI50 [33] was 9.13 µM and the TGI [33] was 18.6 µM. For the same compound, the GI50 [34] was 9.73 µM, the TGI [34] was 20 µM and the GI50 [35] was 10.2 µM. For the same compound, the TGI [35] was 27.2 µM, the GI50 [36] was 7.1 µM and the TGI [36] was 15.3 µM. It also gave a GI50 [37] of 11.6 µM, a TGI [37] of 28.5 µM and a GI50 [38] of 10.9 µM. It also gave a TGI [38] of 26.5 µM, a GI50 [39] of 11.1 µM and a TGI [39] of 31.7 µM. The GI50 [40] was 6.69 µM, the TGI [40] was 19.1 µM and the GI50 [41] was 8.07 µM. The TGI [41] was 15.2 µM, the GI50 [42] was 7.88 µM and the TGI [42] was 17.5 µM. The GI50 [43] was 31.7 µM, the TGI [43] was > 50 µM and the GI50 [44] was 10 µM. For the same compound, the TGI [44] was 21.6 µM, the GI50 [45] was 7.39 µM and the TGI [45] was > 31.6 µM. The GI50 [46] was 7.93 µM, the TGI [46] was 22.8 µM and the GI50 [47] was > 18.8 µM. For the same compound, the TGI [47] was > 26 µM, the GI50 [48] was 8.17 µM and the TGI [48] was 26 µM. For the same compound, the GI50 [49] was 7.82 µM, the TGI [49] was 16.1 µM and the GI50 [50] was 8.34 µM. It also gave a TGI [50] of 21.3 µM, a GI50 [51] of 10.9 µM and a TGI [51] of 26.5 µM. For the same compound, the GI50 [52] was > 18.3 µM, the TGI [52] was > 25.6 µM and the GI50 [53] was 10.1 µM. It also gave a TGI [53] of 26.7 µM, a GI50 [54] of 7.94 µM and a TGI [54] of 15.4 µM.

Reference: PubChem BioAssay (NCI)
